The target in the assay is T1, human DGKζ (Homo sapiens, UniProt Q13574).
T1 construct: made in house; host or cells: Sf9 insect cells, baculovirus
T1 sequence (Q13574 with tags, fused parts or gaps): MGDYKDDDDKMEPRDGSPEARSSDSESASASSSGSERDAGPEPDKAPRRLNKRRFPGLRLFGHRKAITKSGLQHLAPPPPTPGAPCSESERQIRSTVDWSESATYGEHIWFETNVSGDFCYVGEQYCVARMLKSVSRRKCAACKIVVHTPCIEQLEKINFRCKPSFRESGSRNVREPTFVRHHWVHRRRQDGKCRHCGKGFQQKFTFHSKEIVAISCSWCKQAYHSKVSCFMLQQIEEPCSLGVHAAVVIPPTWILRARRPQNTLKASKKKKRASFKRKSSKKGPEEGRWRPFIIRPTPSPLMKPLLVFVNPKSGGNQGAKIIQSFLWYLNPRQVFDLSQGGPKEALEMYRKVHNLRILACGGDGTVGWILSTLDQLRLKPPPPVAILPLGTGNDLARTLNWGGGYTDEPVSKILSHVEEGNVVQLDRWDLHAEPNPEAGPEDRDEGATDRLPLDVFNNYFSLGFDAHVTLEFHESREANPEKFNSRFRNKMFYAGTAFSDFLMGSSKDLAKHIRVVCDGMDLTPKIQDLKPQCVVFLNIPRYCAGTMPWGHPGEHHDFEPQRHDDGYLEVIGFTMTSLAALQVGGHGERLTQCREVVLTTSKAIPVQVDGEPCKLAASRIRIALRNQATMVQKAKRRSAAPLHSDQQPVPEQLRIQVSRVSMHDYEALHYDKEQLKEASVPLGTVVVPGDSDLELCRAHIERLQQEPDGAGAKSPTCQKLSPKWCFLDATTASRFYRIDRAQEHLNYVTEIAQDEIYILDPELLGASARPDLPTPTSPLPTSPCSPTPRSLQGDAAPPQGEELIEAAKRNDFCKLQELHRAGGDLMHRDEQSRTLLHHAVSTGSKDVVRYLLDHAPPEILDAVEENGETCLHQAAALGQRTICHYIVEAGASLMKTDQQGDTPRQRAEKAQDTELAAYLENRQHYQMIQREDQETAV
Kind of assay: Human DGKζ kinase activity inhibition assay (ADP-Glo). The format is biochemical. The settings on record: example compounds; recombinant full-length human DGKζ, 1,2-dioleoyl-sn-glycerol 7 μM, ATP 55 μM, 20 min at 22° C.; read-out: IC50 values of examples in in vitro human DGKζ kinase activity inhibition assays. The method, boiled down:
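Enzyme was C-terminally FLAG-tagged full-length human DGKζ from baculovirus-infected insect cells, typically about 0.1 nM, with 1,2-dioleoyl-sn-glycerol in octyl-β-D-glucopyranoside micelles as substrate. ADP formed was detected by ADP-Glo luminescence; data normalised to no-inhibitor (0%) and no-enzyme (100%) controls.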
Regarding `CC(C(N)=O)N(c1ccc(F)c(F)c1)c1nc(N)c(C(=O)c2cc(C(=O)NC3CC(F)(F)C3)no2)s1` (single isomer, unassigned) [Example 45.1, 5-[4-amino-2-(N-(2-amino-1-methyl-2-oxo-ethyl)-3,4-difluoro-anilino)thiazole-5-carbonyl]-N-(3,3-difluorocyclobutyl)isoxazole-3-carboxamide], the IC50 came out at 20 nM.
Regarding `CC(C(N)=O)N(c1ccc(F)c(F)c1)c1nc(N)c(C(=O)c2cc(C(=O)NC3(C)CCC3)no2)s1` (single isomer, unassigned) [Example 44.1, 5-[4-amino-2-(N-(2-amino-1-methyl-2-oxo-ethyl)-3,4-difluoro-anilino)thiazole-5-carbonyl]-N-(1-methylcyclobutyl)isoxazole-3-carboxamide], the IC50 was 19 nM.
Regarding `CC(C)NC(=O)c1cc(C(=O)c2sc(N(c3ccc(F)cc3)C(C)C(N)=O)nc2N)on1` (racemic) [Example 34, rac-5-[4-amino-2-(N-(2-amino-1-methyl-2-oxo-ethyl)-4-fluoro-anilino)thiazole-5-carbonyl]-N-isopropyl-isoxazole-3-carboxamide], the IC50 turned out to be 223 nM.
`CC(C(N)=O)N(c1ccc(F)cc1)c1nc(N)c(C(=O)c2cc(Br)no2)s1` (single isomer, unassigned) [Example 6.1, 2-(N-[4-amino-5-(3-bromoisoxazole-5-carbonyl)thiazol-2-yl]-4-fluoro-anilino)propanamide]: the IC50 is 64 nM.
Take `CC(C(N)=O)N(c1ccc(F)c(F)c1)c1nc(N)c(C(=O)c2cc(C(=O)NC3CCCC3)no2)s1` (single isomer, unassigned) [Example 46.1, 5-[4-amino-2-(N-(2-amino-1-methyl-2-oxo-ethyl)-3,4-difluoro-anilino)thiazole-5-carbonyl]-N-cyclopentyl-isoxazole-3-carboxamide]: the IC50 was determined as 27 nM.
For `CC(C(N)=O)N(c1ccc(F)cc1)c1nc(N)c(C(=O)c2cc(C(=O)NC(CF)CF)no2)s1` (racemic) [Example 40, rac-5-[4-amino-2-(N-(2-amino-1-methyl-2-oxo-ethyl)-4-fluoro-anilino)thiazole-5-carbonyl]-N-[2-fluoro-1-(fluoromethyl)ethyl]isoxazole-3-carboxamide], the IC50 worked out at 204 nM.
Take `CC(C(N)=O)N(c1ccc(F)cc1)c1nc(N)c(C(=O)c2cc(-c3ccccc3F)no2)s1` (racemic) [Example 67, rac-2-(N-[4-amino-5-[3-(2-fluorophenyl)isoxazole-5-carbonyl]thiazol-2-yl]-4-fluoro-anilino)propanamide]: the IC50 amounted to 109 nM.
As for `CC(C(N)=O)N(c1ccc(F)cc1)c1nc(N)c(C(=O)c2cc(C(=O)NCCOC(F)(F)F)no2)s1` (racemic) [Example 29, rac-5-[4-amino-2-(N-(2-amino-1-methyl-2-oxo-ethyl)-4-fluoro-anilino)thiazole-5-carbonyl]-N-[2-(trifluoromethoxy)ethyl]isoxazole-3-carboxamide], the IC50 was determined as 97 nM.
For the molecule `CC(C(N)=O)N(c1ccc(F)cc1)c1nc(N)c(C(=O)c2cc(C(=O)NC34CC(C3)C4)no2)s1` (racemic) [Example 31, rac-5-[4-amino-2-(N-(2-amino-1-methyl-2-oxo-ethyl)-4-fluoro-anilino)thiazole-5-carbonyl]-N-(1-bicyclo[1.1.1]pentanyl)isoxazole-3-carboxamide], the IC50 was 193 nM.
Consider `CC(C(N)=O)N(c1ccc(F)cc1)c1nc(N)c(C(=O)c2cc(C(=O)NC3CCCC3(C)C)no2)s1` (racemic) [Example 37, 5-[4-amino-2-(N-(2-amino-1-methyl-2-oxo-ethyl)-4-fluoro-anilino)thiazole-5-carbonyl]-N-(2,2-dimethylcyclopentyl)isoxazole-3-carboxamide], for which the IC50 is 43 nM.
To `CC(C(N)=O)N(c1ccc(F)cc1)c1nc(N)c(C(=O)c2cc(CN3CC(F)(F)C3)no2)s1` (racemic) [Example 74, rac-2-(N-[4-amino-5-[3-[(3,3-difluoroazetidin-1-yl)methyl]isoxazole-5-carbonyl]thiazol-2-yl]-4-fluoro-anilino)propanamide] belongs 113 nM.

By IC50 is commonly meant the concentration that inhibits the measured activity by half.
